Measurements taken from the supplement of paper PMC10307832.

How the values were obtained:
Assay in all cases: relative viability (nuclei count vs DMSO), 5 days (fraction); higher = more cells survive
[1] = compound: COc1cc([C@@H]2c3cc4c(cc3[C@@H](O[C@@H]3O[C@@H]5CO[C@@H](C)O[C@H]5[C@H](O)[C@H]3O)[C@H]3COC(=O)[C@H]23)OCO4)cc(OC)c1O [Etoposide] + CC1(C)CCC(c2ccc(Cl)cc2)=C(CN2CCN(c3ccc(C(=O)NS(=O)(=O)c4ccc(N[C@H](CCN5CCOCC5)CSc5ccccc5)c(S(=O)(=O)C(F)(F)F)c4)cc3)CC2)C1 [Navitoclax] (partner 0.5 µM)
Summary of the method: (§1)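 Relative viability divides the nuclei count in treated wells by that in vehicle wells. Lung cancer cell lines were seeded in 1536-well plates, dosed by pin tool the next day, and fixed and stained after 5 days in one step with final 0.05% Triton X-100, 1% formaldehyde and 1 ug/ml Hoechst. Dosing was a single drug or a fixed anchor-drug dose plus five library-drug doses (not always all listed) in √10 steps, and values are medians of duplicate plates imaged at 4×.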

[2] = compound: COc1cc([C@@H]2c3cc4c(cc3[C@@H](O[C@@H]3O[C@@H]5CO[C@@H](C)O[C@H]5[C@H](O)[C@H]3O)[C@H]3COC(=O)[C@H]23)OCO4)cc(OC)c1O [Etoposide] + C[C@]1(O)C[C@@H](c2nc(-c3ccc4ccc(-c5ccccc5)nc4c3)c3c(N)nccn32)C1 [Linsitinib] (partner 1 µM)
Summary of the method: as §1

[3] = compound: CC1=C(N=C(N=C1N)[C@H](CC(=O)N)NC[C@@H](C(=O)N)N)C(=O)N[C@@H]([C@H](C2=CN=CN2)OC3C(C(C(C(O3)CO)O)O)OC4C(C(C(C(O4)CO)O)OC(=O)N)O)C(=O)N[C@H](C)[C@H]([C@H](C)C(=O)N[C@@H]([C@@H](C)O)C(=O)NCCC5=NC(=CS5)C6=NC(=CS6)C(=O)NCCC[S+](C)C)O [Bleomycin] + COc1cccc2cc(-c3nc([C@H]4CC[C@H](C(=O)O)CC4)n4ncnc(N)c34)[nH]c12 [OSI-027] (partner 0.5 µM); settings: main component drawn
Summary of the method: as §1

[4] = compound: CC1=C(N=C(N=C1N)[C@H](CC(=O)N)NC[C@@H](C(=O)N)N)C(=O)N[C@@H]([C@H](C2=CN=CN2)OC3C(C(C(C(O3)CO)O)O)OC4C(C(C(C(O4)CO)O)OC(=O)N)O)C(=O)N[C@H](C)[C@H]([C@H](C)C(=O)N[C@@H]([C@@H](C)O)C(=O)NCCC5=NC(=CS5)C6=NC(=CS6)C(=O)NCCC[S+](C)C)O [Bleomycin] + O=C(CCCCCCC(=O)Nc1ccccc1)NO [Vorinostat] (partner 1 µM); settings: main component drawn
Summary of the method: as §1

Row | Cell Line | relative viability ([1]; first compound 0.01 µM) | relative viability ([1]; first compound 0.03162 µM) | relative viability ([1]; first compound 0.1 µM) | relative viability ([1]; first compound 0.3162 µM) | relative viability ([1]; first compound 1 µM) | relative viability ([2]; first compound 0.01 µM) | relative viability ([2]; first compound 0.03162 µM) | relative viability ([2]; first compound 0.1 µM) | relative viability ([2]; first compound 0.3162 µM) | relative viability ([2]; first compound 1 µM) | relative viability ([3]; first compound 0.01 µM) | relative viability ([3]; first compound 0.03162 µM) | relative viability ([3]; first compound 0.1 µM) | relative viability ([3]; first compound 0.3162 µM) | relative viability ([3]; first compound 1 µM) | relative viability ([4]; first compound 0.01 µM) | relative viability ([4]; first compound 0.03162 µM) | relative viability ([4]; first compound 0.1 µM) | relative viability ([4]; first compound 0.3162 µM) | relative viability ([4]; first compound 1 µM)
1 | 201T | 1.25 | 1.23 | 1.13 | 1.14 | 1.02 | 1.12 | 1.04 | 0.899 | 1 | 0.745 | 0.649 | 0.77 | 0.634 | 0.407 | 0.207 | 0.79 | 0.839 | 0.805 | 0.732 | 0.553
2 | A549 | 1.25 | 1.04 | 0.46 | 0.157 | 0.0716 | 0.41 | 0.584 | 0.225 | 0.262 | 0.0891 |  |  |  |  |  |  |  |  |  | 
3 | A-427 | 0.963 | 0.937 | 0.525 | 0.53 | 0.256 | 1.17 | 1.16 | 0.815 | 0.841 | 0.243 | 0.332 | 0.439 | 0.34 | 0.187 | 0.144 | 0.753 | 0.768 | 0.717 | 0.46 | 0.271
4 | ABC-1 |  |  |  |  |  | 0.753 | 0.894 | 0.879 | 0.418 | 0.308 | 0.394 | 0.428 | 0.388 | 0.18 | 0.212 | 1.24 | 1.28 | 1.07 | 0.684 | 0.579
5 | BEN | 0.0656 | 0.0585 |  | 0.057 | 0.0632 | 0.695 | 0.983 |  | 0.78 | 0.681 | 0.284 | 0.299 | 0.286 | 0.243 | 0.288 | 0.63 | 0.609 | 0.481 | 0.531 | 0.497
6 | CAL-12T | 1.13 | 1.26 | 1.17 | 0.752 | 0.791 | 0.791 | 0.849 | 0.619 | 0.597 | 0.181 | 0.551 | 0.465 | 0.389 | 0.21 | 0.174 | 0.542 | 0.532 | 0.351 | 0.166 | 0.155
7 | COR-L23 | 0.935 | 1.02 | 1.07 | 0.554 | 0.236 | 0.818 | 0.841 | 0.942 | 0.578 | 0.237 | 0.566 | 0.696 | 0.415 | 0.139 | 0.122 | 0.273 | 0.392 | 0.218 | 0.104 | 0.0886
8 | COR-L 105 | 0.745 | 0.802 | 0.79 | 0.516 | 0.586 | 0.874 | 0.958 | 1.02 | 0.769 | 0.713 | 0.591 | 0.567 | 0.639 | 0.339 | 0.377 | 0.716 | 0.719 | 0.617 | 0.435 | 0.486
